Experimental data published in EP4640678A1, “NOVEL OXO-PYRIDINE COMPOUND, PREPARATION METHOD THEREFOR, AND USE THEREOF” (Chengdu Shibeikang Biomedical Technology Co., Ltd., priority 2022, dated 2024).

Assays:
[1] = Effect of continuous in-vivo administration on general condition and food intake of rats; settings: for Food intake (g, mean±SD) / food intake compared with the blank group: 500 mg/kg PO once a day for 14 days, within 24 hours after the last administration
Description: Each group had 10 rats, equally distributed by gender. The rats received drug administrations via oral gavage once a day for 14 consecutive days, following the administration regimen outlined in the table below. The blank group was given an equal volume of a vehicle. […] Table 4 Continuous administration regimen

[2] = target: human FXla (Homo sapiens, UniProt P03951); test: Activity assay of coagulation factor FXla inhibitor (S-2366 substrate, OD405nm); assay type: biochemical; settings: 5 concentrations 200 nM to 0.32 nM, 0.8 nM (2X) human FXla working solution
Description: X: log value of compound concentration; Y: inhibition rate (%).

[3] = tested on: human plasma; test: determination of in-vitro anticoagulant effect in human plasma (APTT); assay type: biochemical; settings: for APTT prolongation rate (%): healthy human plasma, 37°C for 3 min
Protocol: After centrifugation, the plasma sample was pipetted and frozen (-80°C) for later use.
A proper amount of a compound was weighed and prepared into a 10-100 mM stock solution using 100% of DMSO (the specific concentration of the stock solution was determined based on the properties of the compound); and then working solutions with various concentrations (specifically: 1 µM, 3 µM and 10 µM, respectively) were prepared from the stock solution using the healthy human plasma as a solution and thoroughly mixed. After incubation at 37°C for 3 min, the sample was placed on an instrument (model: CS-2000I) to determine APTT.
GraphPad Prism software was used for analysis to calculate the APTT prolongation rate at each concentration.

Chain of human FXla (P03951 388-625 limits assumed): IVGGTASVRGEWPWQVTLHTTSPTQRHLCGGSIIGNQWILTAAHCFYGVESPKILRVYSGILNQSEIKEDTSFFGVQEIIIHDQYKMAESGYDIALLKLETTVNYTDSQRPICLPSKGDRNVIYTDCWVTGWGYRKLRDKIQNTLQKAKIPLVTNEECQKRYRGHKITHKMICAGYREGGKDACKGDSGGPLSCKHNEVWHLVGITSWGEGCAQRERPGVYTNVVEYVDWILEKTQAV
Chain of human FXla (P03951 19-387 partner limits assumed): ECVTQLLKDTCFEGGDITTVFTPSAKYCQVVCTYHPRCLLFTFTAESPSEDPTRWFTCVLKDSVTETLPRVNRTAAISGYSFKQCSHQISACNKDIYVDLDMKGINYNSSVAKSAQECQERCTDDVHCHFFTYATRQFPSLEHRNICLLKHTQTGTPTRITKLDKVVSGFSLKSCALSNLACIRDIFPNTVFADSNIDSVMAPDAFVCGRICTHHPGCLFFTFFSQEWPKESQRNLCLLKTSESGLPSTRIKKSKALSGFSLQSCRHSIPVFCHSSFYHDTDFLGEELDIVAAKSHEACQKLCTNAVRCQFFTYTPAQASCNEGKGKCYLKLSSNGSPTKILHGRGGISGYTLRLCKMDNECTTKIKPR

IC50 [2] [nM] | Molecule | Food intake (g, mean±SD) [1] [g] | general condition of the rats ([1]; SD rats, 500 mg/kg PO once a day for 14 consecutive days) | food intake compared with the blank group ([1]; SD rats) | APTT prolongation rate (%) ([3]; 3 µM) | APTT prolongation rate (%) ([3]; 10 µM) | EC150 ([3]; estimated from the APTT test results in human plasma) | APTT prolongation rate (%) ([3]; 1 µM)
 | CC[C@@H](C(=O)Nc1ccc(C(N)=O)c(F)c1)n1cc(OC)c(-c2cc(Cl)ccc2-n2cc(C(F)(F)F)nn2)cc1=O [Comparative example 1, (S)-4-(2-(4-(5-chloro-2-(4-(trifluoromethyl)-1H-1,2,3-triazol-1-yl)phenyl)-5-methoxy-2-oxopyridin-1(2H)-yl)butanamido)-2-fluorobenzamide, reference compound] | 24.98 ± 0.92 | piloerection and hypoactivity were found in 1/3 or more of the rats | significantly reduced food intake |  |  |  | 
7.53 | CC[C@@H](C(=O)Nc1ccc(C(N)=O)c(Cl)c1)n1cc(OC)c(-c2cc(Cl)ccc2-n2cc(C(F)(F)F)nn2)cc1=O [Compound 1, (S)-2-chloro-4-(2-(4-(5-chloro-2-(4-(trifluoromethyl)-1H-1,2,3-triazol-1-yl)phenyl)-5-methoxy-2-oxopyridin-1(2H)-yl)butanamido)benzamide] |  |  |  | 65.8 | 136.5 | less than 1 µM | 
 | CC[C@@H](C(=O)Nc1ccc(C(=O)NC)c(Cl)c1)n1cc(OC)c(-c2cc(Cl)ccc2-n2cc(C(F)(F)F)nn2)cc1=O [Compound 3, (S)-2-chloro-4-(2-(4-(5-chloro-2-(4-(trifluoromethyl)-1H-1,2,3-triazol-1-yl)phenyl)-5-methoxy-2-oxopyridin-1(2H)-yl)butanamido)-N-methylbenzamide] |  |  |  | 66.5 | 92.0 |  | 48.2
 | CC[C@@H](C(=O)Nc1ccc(C(=O)OC)c(Cl)c1)n1cc(OC)c(-c2cc(Cl)ccc2-n2cc(C(F)(F)F)nn2)cc1=O [Compound 4, Methyl (S)-2-chloro-4-(2-(4-(5-chloro-2-(4-(trifluoromethyl)-1H-1,2,3-triazol-1-yl)phenyl)-5-methoxy-2-oxopyridin-1(2H)-yl)butanamido)benzoate] |  |  |  | 54.3 | 102.6 |  | 31.5
 | CC[C@@H](C(=O)Nc1ccc(C(N)=O)c(C(F)(F)F)c1)n1cc(OC)c(-c2cc(Cl)ccc2-n2cc(C(F)(F)F)nn2)cc1=O [Compound 7, (S)-4-(2-(4-(5-chloro-2-(4-(trifluoromethyl)-1H-1,2,3-triazol-1-yl)phenyl)-5-methoxy-2-oxopyridin-1(2H)-yl)butanamido)-2-(trifluoromethyl)benzamide] |  |  |  | 52.4 | 73.4 |  | 37.9
 | CC[C@@H](C(=O)Nc1ccc(C(N)=O)c(C(N)=O)c1)n1cc(OC)c(-c2cc(Cl)ccc2-n2cc(C(F)(F)F)nn2)cc1=O [Compound 8, (S)-4-(2-(4-(5-chloro-2-(4-(trifluoromethyl)-1H-1,2,3-triazol-1-yl)phenyl)-5-methoxy-2-oxopyridin-1(2H)-yl)butanamido)phthalamide] |  |  |  | 64.5 | 93.8 |  | 34.7
 | CC[C@@H](C(=O)Nc1ccc(C(N)=O)c(Cl)c1)n1cc(OC)c(-c2cc(Cl)ccc2-n2cc(Cl)nn2)cc1=O [Compound 10, (S)-2-chloro-4-(2-(4-(5-chloro-2-(4-chloro-1H-1,2,3-triazol-1-yl)phenyl)-5-methoxy-2-oxopyridin-1(2H)-yl)butanamido)benzamide] |  |  |  | 56.0 | 98.9 |  | 38.6
 | CC[C@@H](C(=O)Nc1ccc(C(N)=O)c(C(F)(F)F)c1)n1cc(OC)c(-c2cc(Cl)ccc2-n2cc(Cl)nn2)cc1=O [Compound 11, (S)-4-(2-(4-(5-chloro-2-(4-chloro-1H-1,2,3-triazol-1-yl)phenyl)-5-methoxy-2-oxopyridin-1(2H)-yl)butanamido)-2-(trifluoromethyl)benzamide] |  |  |  | 26.9 | 42.0 |  | 18.7
 | CC[C@@H](C(=O)Nc1ccc(C(N)=O)c(F)c1F)n1cc(OC)c(-c2cc(Cl)ccc2-n2cc(C(F)(F)F)nn2)cc1=O [Compound 12, (S)-4-(2-(4-(5-chloro-2-(4-(trifluoromethyl)-1H-1,2,3-triazol-1-yl)phenyl)-5-methoxy-2-oxopyridin-1(2H)-yl)butanamido)-2,3-difluorobenzamide] |  |  |  | 33.5 | 81.1 |  | 23.2
 | CC[C@@H](C(=O)Nc1c(Cl)cc(C(N)=O)cc1Cl)n1cc(OC)c(-c2cc(Cl)ccc2-n2cc(C(F)(F)F)nn2)cc1=O [Compound 15, (S)-3,5-dichloro-4-(2-(4-(5-chloro-2-(4-(trifluoromethyl)-1H-1,2,3-triazol-1-yl)phenyl)-5-methoxy-2-oxopyridin-1(2H)-yl)butanamido)benzamide] |  |  |  | 30.0 | 51.1 |  | 24.2
 | CC[C@@H](C(=O)Nc1ccc(C(N)=O)cc1Cl)n1cc(OC)c(-c2cc(Cl)ccc2-n2cc(C(F)(F)F)nn2)cc1=O [Compound 16, (S)-3-chloro-4-(2-(4-(5-chloro-2-(4-(trifluoromethyl)-1H-1,2,3-triazol-1-yl)phenyl)-5-methoxy-2-oxopyridin-1(2H)-yl)butanamido)-benzamide] |  |  |  | 11.7 | 26.8 |  | 7.0
 | CC[C@@H](C(=O)Nc1ccc(C(=O)NC)cc1F)n1cc(OC)c(-c2cc(Cl)ccc2-n2cc(C(F)(F)F)nn2)cc1=O [Compound 19, (S)-4-(2-(4-(5-chloro-2-(4-(trifluoromethyl)-1H-1,2,3-triazol-1-yl)phenyl)-5-methoxy-2-oxopyridin-1(2H)-yl)butanamido)-3-fluoro-N-methylbenzamide] |  |  |  | 44.0 | 77.1 |  | 24.2
 | CC[C@@H](C(=O)Nc1cc(F)c(C(=O)NC)c(F)c1)n1cc(OC)c(-c2cc(Cl)ccc2-n2cc(C(F)(F)F)nn2)cc1=O [Compound 20, (S)-4-(2-(4-(5-chloro-2-(4-(trifluoromethyl)-1H-1,2,3-triazol-1-yl)phenyl)-5-methoxy-2-oxopyridin-1(2H)-yl)butanamido)-2,6-difluoro-N-methylbenzamide] |  |  |  | 49.2 | 98.6 |  | 19.2
 | [2H]C([2H])([2H])Oc1cn([C@@H](CC)C(=O)Nc2ccc(C(N)=O)c(F)c2)c(=O)cc1-c1cc(Cl)ccc1-n1cc(C(F)(F)F)nn1 [Compound 21, (S)-4-(2-(4-(5-chloro-2-(4-(trifluoromethyl)-1H-1,2,3-triazol-1-yl)phenyl)-5-(methoxy-d3)-2-oxopyridin-1(2H)-yl)butanamido)-2-fluorobenzamide] | 27.08 ± 1.23 |  | essentially the same food intake as the blank group |  |  |  | 
 | [2H]C([2H])([2H])Oc1cn([C@@H](CC)C(=O)Nc2ccc(C(N)=O)cc2F)c(=O)cc1-c1cc(Cl)ccc1-n1cc(C(F)(F)F)nn1 [Compound 23, (S)-4-(2-(4-(5-chloro-2-(4-(trifluoromethyl)-1H-1,2,3-triazol-1-yl)phenyl)-5-(methoxy-d3)-2-oxopyridin-1(2H)-yl)butanamide)-3-fluorobenzamide] |  |  |  | 81.2 | 168.0 |  | 48.8
 | [2H]C([2H])([2H])Oc1cn([C@@H](CC)C(=O)Nc2ccc(C(=O)NC)cc2F)c(=O)cc1-c1cc(Cl)ccc1-n1cc(C(F)(F)F)nn1 [Compound 24, (S)-4-(2-(4-(5-chloro-2-(4-(trifluoromethyl)-1H-1,2,3-triazol-1-yl)phenyl)-5-(methoxy-d3)-2-oxopyridin-1(2H)-yl)butanamido)-3-fluoro-N-methylbenzamide] |  |  |  | 73.2 | 132.5 |  | 35.1
 | [2H]C([2H])([2H])NC(=O)c1ccc(NC(=O)[C@@H](n2cc(OC([2H])([2H])[2H])c(-c3cc(Cl)ccc3-n3cc(C(F)(F)F)nn3)cc2=O)C([2H])([2H])C([2H])([2H])[2H])cc1F [Compound 30, (S)-4-(2-(4-(5-chloro-2-(4-(trifluoromethyl)-1H-1,2,3-triazol-1-yl)phenyl)-5-(methoxy-d3)-2-oxopyridin-1(2H)-yl)butanamido-3,3,4,4,4-d5)-2-fluoro-N-(methyl-d3)benzamide] |  |  |  | 79.0 | 138.4 |  | 48.1
 | (S)-4-(2-(4-(5-chloro-2-(4-(trifluoromethyl)-1H-1,2,3-triazol-1-yl)phenyl)-5-methoxy-2-oxopyridin-1(2H)-yl)butanamido)-3,6-difluorobenzamide [Compound 14] |  |  |  | 9.1 | 18.5 |  | 0.9
